Assays:
[1] = molecular target: T1, SIRT1 (Homo sapiens, UniProt Q96EB6); test: TAMRA based mass spectrometry assay of SIRT1 activity; assay type: biochemical; details: for Emax: read-out: TAMRA % Fold Act
T1 sequence (Q96EB6 1-747): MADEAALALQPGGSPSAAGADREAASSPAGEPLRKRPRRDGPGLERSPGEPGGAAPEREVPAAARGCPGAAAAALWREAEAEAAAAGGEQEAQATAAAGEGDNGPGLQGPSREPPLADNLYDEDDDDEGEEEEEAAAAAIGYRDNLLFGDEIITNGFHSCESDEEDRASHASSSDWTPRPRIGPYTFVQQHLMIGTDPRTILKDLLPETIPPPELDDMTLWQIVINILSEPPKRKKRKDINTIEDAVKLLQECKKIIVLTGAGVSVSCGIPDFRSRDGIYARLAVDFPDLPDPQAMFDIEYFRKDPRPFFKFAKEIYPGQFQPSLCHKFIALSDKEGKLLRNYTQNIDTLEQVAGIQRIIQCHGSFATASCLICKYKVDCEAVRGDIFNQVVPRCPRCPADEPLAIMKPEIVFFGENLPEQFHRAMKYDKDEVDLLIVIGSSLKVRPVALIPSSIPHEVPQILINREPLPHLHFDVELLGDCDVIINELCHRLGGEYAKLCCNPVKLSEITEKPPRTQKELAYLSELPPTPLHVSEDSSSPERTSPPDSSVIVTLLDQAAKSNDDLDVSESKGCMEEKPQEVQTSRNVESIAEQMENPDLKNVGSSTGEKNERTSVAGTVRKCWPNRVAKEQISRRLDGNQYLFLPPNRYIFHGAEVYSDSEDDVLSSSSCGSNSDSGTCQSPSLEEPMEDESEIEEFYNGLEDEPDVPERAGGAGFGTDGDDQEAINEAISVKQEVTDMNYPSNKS
In short: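 Recombinant N-terminal His-tagged human SIRT1 (10 nM, E. coli) incubated 25 min at 25 °C with 0.5 μM 5TMR-labelled p53-derived acetyl-peptide and 120 μM βNAD+ in Tris-acetate pH 8 buffer with DTT and 0.05% BSA, compound at varying concentrations. Stopped with formic acid; deacetylated peptide or OAADPR measured by mass spectrometry relative to DMSO controls.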

[2] = molecular target: T1, SIRT1; test: Trp mass spectrometry assay of SIRT1 activity; assay type: biochemical; details: for Emax: read-out: Trp % Fold Act
In short: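 His-tagged SIRT1 expressed in E. coli BL21(DE3), 10 nM, incubated 25 min at 25° C. with 0.5 μM Ac-RHKK(Ac)W-NH2 peptide and 120 μM βNAD+ in 50 mM HEPES pH 7.5, […], 1 mM DTT, 0.05% BSA; formic acid stop. OAADPR or deacetylated peptide measured by mass spectrometry; EC1.5 and percent maximum activation versus DMSO control.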

[3] = TAMRA peptide substrate, concentration giving 150% activation of SIRT1
[4] = TAMRA peptide substrate, percent maximum fold activation
[5] = Trp peptide substrate, concentration giving 150% activation of SIRT1
[6] = Trp peptide substrate, percent maximum fold activation
[7] = TAMRA assay, concentration giving 150% activation of SIRT1
[8] = TAMRA assay, percent maximum fold activation
[9] = Trp assay, concentration giving 150% activation of SIRT1
[10] = Trp assay, percent maximum fold activation
[11] = concentration of test compound giving 150% activation of SIRT1, TAMRA peptide substrate
[12] = percent maximum fold activation of SIRT1, TAMRA peptide substrate
[13] = concentration of test compound giving 150% activation of SIRT1, Trp peptide substrate
[14] = percent maximum fold activation of SIRT1, Trp peptide substrate

Cc1ccnc(NC(=O)c2cnc3ccc(-c4ccccc4OC(F)(F)F)nn23)n1 [Compound 401]
TAMRA EC1.5 [1, 3]: A (EC1.5<1 μM) | Emax [1, 4]: ≥ 350% | Trp EC1.5 [2, 5]: A (EC1.5<1 μM) | Emax [2, 6]: ≥ 350%

O=C(Nc1ccncn1)c1cnc2ccc(-c3ccccc3OC[C@H](O)CO)nn12 [Compound 833]
TAMRA EC1.5 (μM) [1, 7]: B (EC1.5 1-25 μM) | Emax [1, 8]: ≥ 350% | Trp EC1.5 (μM) [2, 9]: B (EC1.5 1-25 μM) | Emax [2, 10]: < 350%

Cc1cc2ncc(C(=O)Nc3ccccn3)n2nc1-c1ccccc1C(F)(F)F [Compound 224]
TAMRA EC1.5 (μM) [1, 7]: B (EC1.5 1-25 μM) | Emax [1, 8]: ≥ 350% | Trp EC1.5 (μM) [2, 9]: B (EC1.5 1-25 μM) | Emax [2, 10]: ≥ 350%

O=C(Nc1cccnc1N1CCOCC1)c1cnc2ccc(-c3ccccc3C(F)(F)F)nn12 [Compound 215]
TAMRA EC1.5 (μM) [1, 7]: C (EC1.5>25 μM) | Emax [1, 8]: < 350% | Trp EC1.5 (μM) [2, 9]: C (EC1.5>25 μM) | Emax [2, 10]: < 350%

COc1cc(NC(=O)c2cnc3ccc(-c4ccccc4C(F)(F)F)nn23)ncn1 [Compound 197]
TAMRA EC1.5 (μM) [1, 7]: A (EC1.5<1 μM) | Emax [1, 8]: ≥ 350% | Trp EC1.5 (μM) [2, 9]: B (EC1.5 1-25 μM) | Emax [2, 10]: < 350%

Cc1cc(NC(=O)c2c(C)nc3c(C)cc(-c4ccccc4C(F)(F)F)nn23)nc(C)n1 [Compound 475]
TAMRA EC1.5 [1, 3]: A (EC1.5<1 μM) | Emax [1, 4]: ≥ 350% | Trp EC1.5 [2, 5]: B (EC1.5 1-25 μM) | Emax [2, 6]: ≥ 350%

O=C(Nc1cccc(CN2CCOCC2)n1)c1cnc2ccc(-c3cccc(F)c3F)nn12 [Compound 47]
TAMRA EC1.5 (μM) [1, 11]: A (EC1.5<1 μM) | Emax [1, 12]: ≥ 350% | Trp EC1.5 (μM) [2, 13]: C (EC1.5>25 μM) | Emax [2, 14]: < 350%

Cc1nc(C(=O)Nc2cnn3ccc(-c4ccccc4C(F)(F)F)nc23)cs1 [Compound 527]
TAMRA EC1.5 [1, 3]: A (EC1.5<1 μM) | Emax [1, 4]: ≥ 350% | Trp EC1.5 [2, 5]: B (EC1.5 1-25 μM) | Emax [2, 6]: < 350%

O=C(Nc1nc(CN2CCOCC2)cs1)c1cnc2ccc(-c3cccc(F)c3)nn12 [Compound 29]
TAMRA EC1.5 (μM) [1, 11]: B (EC1.5 1-25 μM) | Emax [1, 12]: < 350% | Trp EC1.5 (μM) [2, 13]: B (EC1.5 1-25 μM) | Emax [2, 14]: < 350%

Cc1nc(C(=O)Nc2cnc3c(C)cc(-c4ccccc4C(F)(F)F)nn23)cs1 [Compound 412]
TAMRA EC1.5 [1, 3]: A (EC1.5<1 μM) | Emax [1, 4]: ≥ 350% | Trp EC1.5 [2, 5]: A (EC1.5<1 μM) | Emax [2, 6]: ≥ 350%

Cc1cc(C)nc(NC(=O)c2cnn3ccc(-c4ccccc4OC(F)(F)F)nc23)n1 [Compound 688]
TAMRA EC1.5 (μM) [1, 7]: B (EC1.5 1-25 μM) | Emax [1, 8]: ≥ 350% | Trp EC1.5 (μM) [2, 9]: B (EC1.5 1-25 μM) | Emax [2, 10]: < 350%

Cc1cc(-c2ccccc2C(F)(F)F)nn2c(C(=O)Nc3nccc(N4CCCC4)n3)cnc12 [Compound 647]
TAMRA EC1.5 (μM) [1, 7]: A (EC1.5<1 μM) | Emax [1, 8]: ≥ 350% | Trp EC1.5 (μM) [2, 9]: A (EC1.5<1 μM) | Emax [2, 10]: ≥ 350%

Cc1nn2ccc(-c3ccccc3C(F)(F)F)nc2c1C(=O)Nc1cccc(N2CCOCC2)n1 [Compound 552]
TAMRA EC1.5 [1, 3]: A (EC1.5<1 μM) | Emax [1, 4]: ≥ 350% | Trp EC1.5 [2, 5]: A (EC1.5<1 μM) | Emax [2, 6]: ≥ 350%

O=C(Nc1ccncc1F)c1cnn2ccc(-c3ccccc3C(F)(F)F)nc12 [Compound 517]
TAMRA EC1.5 [1, 3]: B (EC1.5 1-25 μM) | Emax [1, 4]: ≥ 350% | Trp EC1.5 [2, 5]: B (EC1.5 1-25 μM) | Emax [2, 6]: < 350%

Cc1cc(NC(=O)c2cnc3ccc(-c4ccccc4C(F)(F)F)nn23)ccn1 [Compound 102]
TAMRA EC1.5 (μM) [1, 11]: A (EC1.5<1 μM) | Emax [1, 12]: ≥ 350% | Trp EC1.5 (μM) [2, 13]: B (EC1.5 1-25 μM) | Emax [2, 14]: ≥ 350%

O=C(Nc1cnc2ccc(-c3ccccc3F)nn12)c1cccc(OCC(O)CO)n1 (stereo not shown) [Compound 305]
TAMRA EC1.5 (μM) [1, 7]: B (EC1.5 1-25 μM) | Emax [1, 8]: < 350% | Trp EC1.5 (μM) [2, 9]: A (EC1.5<1 μM) | Emax [2, 10]: < 350%

Cc1cccnc1C(=O)Nc1cnn2ccc(-c3ccccc3C(F)(F)F)nc12 [Compound 746]
TAMRA EC1.5 (μM) [1, 7]: A (EC1.5<1 μM) | Emax [1, 8]: ≥ 350% | Trp EC1.5 (μM) [2, 9]: C (EC1.5>25 μM) | Emax [2, 10]: < 350%

Cc1cccc(NC(=O)c2c(C)nc3ccc(-c4ccccc4OC[C@H](O)CO)nn23)n1 [Compound 816]
TAMRA EC1.5 (μM) [1, 7]: A (EC1.5<1 μM) | Emax [1, 8]: ≥ 350% | Trp EC1.5 (μM) [2, 9]: A (EC1.5<1 μM) | Emax [2, 10]: ≥ 350%

O=C(Nc1cccc(CN2CCOCC2)n1)c1cnc2ccc(-c3ccccc3C(F)F)nn12 [Compound 34]
TAMRA EC1.5 (μM) [1, 11]: A (EC1.5<1 μM) | Emax [1, 12]: ≥ 350% | Trp EC1.5 (μM) [2, 13]: B (EC1.5 1-25 μM) | Emax [2, 14]: < 350%

Cc1cncc(NC(=O)c2cnn3ccc(-c4ccccc4OC(F)(F)F)nc23)c1 [Compound 616]
TAMRA EC1.5 (μM) [1, 7]: A (EC1.5<1 μM) | Emax [1, 8]: ≥ 350% | Trp EC1.5 (μM) [2, 9]: A (EC1.5<1 μM) | Emax [2, 10]: ≥ 350%

O=C(Nc1ncc(F)cc1F)c1cnn2ccc(-c3ccccc3C(F)(F)F)nc12 [Compound 656]
TAMRA EC1.5 (μM) [1, 7]: B (EC1.5 1-25 μM) | Emax [1, 8]: ≥ 350% | Trp EC1.5 (μM) [2, 9]: B (EC1.5 1-25 μM) | Emax [2, 10]: < 350%

Cc1cccc(NC(=O)c2c(C)nn3ccc(-c4ccccc4C(F)(F)F)nc23)n1 [Compound 628, 2-methyl-N-(6-methylpyridin-2-yl)-5-(2-(trifluoromethyl)phenyl)pyrazolo[1,5-a]pyrimidine-3-carboxamide]
TAMRA EC1.5 (μM) [1, 7]: A (EC1.5<1 μM) | Emax [1, 8]: ≥ 350% | Trp EC1.5 (μM) [2, 9]: A (EC1.5<1 μM) | Emax [2, 10]: ≥ 350%

Cc1nc2ccc(-c3ccccc3F)nn2c1C(=O)Nc1cccnn1 [Compound 706]
Emax [1, 8]: < 350% | Emax [2, 10]: < 350%

O=C(Nc1ccnc(N2CCC2)c1)c1cnc2ccc(-c3ccccc3F)nn12 [Compound 134]
TAMRA EC1.5 (μM) [1, 11]: A (EC1.5<1 μM) | Emax [1, 12]: ≥ 350% | Trp EC1.5 (μM) [2, 13]: C (EC1.5>25 μM) | Emax [2, 14]: < 350%

Cc1cc(NC(=O)c2cnc3ccc(-c4ccccc4C(F)(F)F)nn23)nc(C)n1 [Compound 238]
TAMRA EC1.5 (μM) [1, 7]: A (EC1.5<1 μM) | Emax [1, 8]: ≥ 350% | Trp EC1.5 (μM) [2, 9]: C (EC1.5>25 μM) | Emax [2, 10]: < 350%

Cc1cc(NC(=O)c2cnc3ccc(-c4ccccc4OC[C@H](O)CO)nn23)nc(C)n1 [Compound 832]
TAMRA EC1.5 (μM) [1, 7]: A (EC1.5<1 μM) | Emax [1, 8]: ≥ 350% | Trp EC1.5 (μM) [2, 9]: B (EC1.5 1-25 μM) | Emax [2, 10]: < 350%

O=C(Nc1cnc2ccc(-c3ccccc3F)nn12)c1ccncn1 [Compound 281]
TAMRA EC1.5 (μM) [1, 7]: C (EC1.5>25 μM) | Emax [1, 8]: < 350% | Trp EC1.5 (μM) [2, 9]: C (EC1.5>25 μM) | Emax [2, 10]: < 350%

Cc1cc(NC(=O)c2cnc3ccc(-c4ccccc4F)nn23)ccn1 [Compound 242]
TAMRA EC1.5 (μM) [1, 7]: B (EC1.5 1-25 μM) | Emax [1, 8]: < 350% | Trp EC1.5 (μM) [2, 9]: B (EC1.5 1-25 μM) | Emax [2, 10]: < 350%

CCn1nccc1NC(=O)c1c(C)nc2ccc(-c3ccccc3C(F)(F)F)nn12 [Compound 674]
TAMRA EC1.5 (μM) [1, 7]: B (EC1.5 1-25 μM) | Emax [1, 8]: < 350% | Trp EC1.5 (μM) [2, 9]: B (EC1.5 1-25 μM) | Emax [2, 10]: ≥ 350%

O=C(Nc1cccnc1)c1cnc2ccc(-c3cccc(Cl)c3F)nn12 [Compound 143]
TAMRA EC1.5 (μM) [1, 11]: C (EC1.5>25 μM) | Emax [1, 12]: < 350% | Trp EC1.5 (μM) [2, 13]: A (EC1.5<1 μM) | Emax [2, 14]: < 350%

Cc1nc(C(=O)Nc2cnc3ccc(-c4ccccc4C(F)(F)F)nn23)cs1 [Compound 273]
TAMRA EC1.5 (μM) [1, 7]: A (EC1.5<1 μM) | Emax [1, 8]: ≥ 350% | Trp EC1.5 (μM) [2, 9]: B (EC1.5 1-25 μM) | Emax [2, 10]: ≥ 350%

O=C(Nc1ccc(F)cn1)c1cnc2ccc(-c3ccccc3C(F)(F)F)nn12 [Compound 110]
TAMRA EC1.5 (μM) [1, 11]: A (EC1.5<1 μM) | Emax [1, 12]: ≥ 350% | Trp EC1.5 (μM) [2, 13]: B (EC1.5 1-25 μM) | Emax [2, 14]: < 350%

O=C(Nc1ccnc(N2CCC2)c1)c1cnc2ccc(-c3cccc(Cl)c3F)nn12 [Compound 159]
TAMRA EC1.5 (μM) [1, 11]: A (EC1.5<1 μM) | Emax [1, 12]: < 350% | Trp EC1.5 (μM) [2, 13]: B (EC1.5 1-25 μM) | Emax [2, 14]: < 350%
